The values that follow come from US7078407B2, “4-hydroxycinnamamide derivatives as antioxidants and pharmaceutical compositions containing them” (Korea Research Institute of Chemical Technology, priority 2001, dated 2006).

In data set [1] the test system is lipid peroxidation in brain homogeneous substance. Description: Antioxidation activation test: lipid peroxidation assay (TBARS/MDA) in brain homogenate with FeCl2/ascorbic acid. The following applies: for IC50: 50% inhibitory concentration of lipid peroxidation (TBARS at 520 nm), rat brain homogenate, FeCl2/ascorbic acid; for antioxidation activity increased compared with the prior antioxidation activator BHT: relative to BHT IC50 of Table 4. It counts as biochemical, SD rat. As to the method:
After decapitating a SD rat (male, 10–12 weeks old) and rapidly extracting the brain, 10 mM Tris-HCl buffer solution (pH 7.4) containing 150 mM KCl is added to 10 ml/brain and homogenated. Then, the homogenated brain mixture is centrifuged for 10 minutes at 2,200 rpm, 4° C., and the upper layer is collected through protein assay. The exact amount of protein is measured and kept at −20° C.
250 μl of brain homogeneous substance (5 mg protein/ml), 10 μl of sample substance, 20 μl of buffer solution is divided at the 96-well micro plate one by one, and cultured for 20 minutes at 37° C. under a shaking condition. Then, 10 μl of 20 μM FeCl2 and 250 μM ascorbic acid is respectively added to the mixture and cultured for 30 minutes at 37° C. After completing the reaction by adding 50 μl of 35% HClO4 to the mixture, the micro plate is centrifuged for 10 minutes at 2,000 rpm, 4° C., and only the upper layer is transferred to the 96-well micro plate in an amount of 240 μl, and then, 120 μl of TBA (thiabarbituric acid; 5 mg/ml in 50% acetic acid) is added to the mixture. After reacting the micro plate for an hour at 80° C., it is cooled at room temperature, and the optical density of the thus obtained TBARS (thiobarbituric acid reactive substances, MDA) is measured at 520 nm.
The assay response curve of TBARS obtained using tetraethoxypropane, a reaction substance of TBA is used in calculating the amount of reaction product MDA of the sample substance, and the oxidation inhibition effect of the test drug is obtained by the following equation 1. Further, the 50% inhibitory concentration (IC50) is obtained using the dose response curve.
wherein, A is the concentration (nmol) of the control protein (MDA/mg), and
B is the concentration (nmol) of the experiment protein (MDA/mg).

Consider `CC(C)(C)c1cc(/C=C/C(=O)N2CCN(c3ccc(NC(=N)c4ccc[nH]4)cc3)CC2)cc(C(C)(C)C)c1O` [Example 21, N-(4-{4-[3-(3,5-di-t-butyl-4-hydroxy-phenyl)-acryloyl]-piperazine-1-yl}-phenyl)-1H-pyrrole-2-carboxamidine], for which the melting point lay within 149 to 167 °C.

With `Cc1cc(C(C)(C)C)c(O)c(C(C)(C)C)c1` [BHT, tert-butyl-hydroxytoluene, reference compound], in data set [1], the concentration for half-maximal inhibition (IC50) turned out to be 2090 nM.

As to `CCCCOc1cc(/C=C/C(=O)N2CCN(c3ccc(NC(=N)c4cccs4)cc3)CC2)cc(OCCCC)c1O` [Example 19, N-(4-{4-[3-(3,5-dibutoxy-4-hydroxy-phenyl)-acryloyl]-piperazine-1-yl}-phenyl)-thiophene-2-carboxamidine], the melting point was 99 to 102 °C. Moreover, in data set [1], the “antioxidation activity increased compared with the prior antioxidation activator BHT” value (“antioxidation activity increased” below) is listed as 82%.

Take `CCCCCCCOc1cc(/C=C/C(=O)N2CCN(c3ccc(NC(=N)c4ccc[nH]4)cc3)CC2)cc(OCCCCCCC)c1O` [Example 24, N-(4-{4-[3-(3,5-bis-heptyloxy-4-hydroxy-phenyl)-acryloyl]-piperazine-1-yl}-phenyl)-1H-pyrrole-2-carboxamidine]: the melting point was in the range of 100 to 145 °C.

Compound `CCCCOc1cc(/C=C/C(=O)NCCc2cc(C(C)(C)C)c(O)c(C(C)(C)C)c2)cc(OCCCC)c1O` [Example 1, 3-(3,5-dibutoxy-4-hydroxyphenyl)-N-[2-(3,5-di-t-butyl-4-hydroxyphenyl)ethyl]acrylamide] returned a melting point of 82 to 85 °C.

`CCCOc1cc(/C=C/C(=O)N2CCN(c3ccc(NC(=N)c4cccs4)cc3)CC2)cc(OCCC)c1O` [Example 18, N-(4-{4-[3-(4-hydroxy-3,5-dipropoxy-phenyl)-acryloyl]-piperazine-1-yl}-phenyl)-thiophene-2-carboxamidine] returned an IC50 in data set [1] of 490 nM.

Regarding `CCCCCCOc1cc(/C=C/C(=O)Nc2ccccc2O)cc(OCCCCCC)c1O` [Example 6, 3-(3,5-bishexyloxy-4-hydroxyphenyl)-N-(2-hydroxyphenyl)acrylamide], the melting point was in the range of 137 to 140 °C.

`CCCCCCCCCOc1cc(CN2CCN(CC(O)c3ccc(Cl)cc3)CC2)cc(OCCCCCCCCC)c1O` (stereo not shown) [Example 8, 4-{4-[2-(4-chlorophenyl)-2-hydroethyl]piperazine-1-ylmethyl}-2,6-bis-nonyloxyphenol]: in data set [1], the half-inhibitory concentration (IC50) is 1530 nM and the “antioxidation activity increased” value stood at 27%.

For `CCCCCOc1cc(/C=C/C(=O)N2CCN(c3ccc(NC(=N)c4ccc[nH]4)cc3)CC2)cc(OCCCCC)c1O` [Example 23, N-(4-{4-[3-(4-hydroxy-3,5-bis-penyloxy-phenyl)-acryloyl]-piperazine-1-yl}-phenyl)-1H-pyrrole-2-carboxamidine], the melting point lay in the range of 109 to 116 °C. The same compound registered an IC50 in data set [1] of 450 nM.

In the case of `CC(C)(C)c1cc(/C=C/C(=O)N2CCN(c3ccc(NC(=N)c4cccs4)cc3)CC2)cc(C(C)(C)C)c1O` [Example 16, N-(4-(4-[3-(3,5-di-t-butyl-4-hydroxy-phenyl)-acryloyl]-piperizine-lyl}-phenyl)-thiophene-2-carboxamidine], it took 510 nM to reach half-maximal inhibition in data set [1] (IC50).

For the compound `CCCCOc1cc(/C=C/C(=O)N2CCN(c3ccc(NC(=N)c4ccc[nH]4)cc3)CC2)cc(OCCCC)c1O` [Example 22, N-(4-{4-[3-(3,5-dibutoxy-4-hydroxy-phenyl)-acryloyl]-piperazine-1-yl}-phenyl)-1H-pyrrole-2-carboxamidine], in data set [1], inhibition was half-maximal at 370 nM (IC50) and the “antioxidation activity increased” value was determined as 82%.

As for `CCC(CC)Oc1cc(/C=C/C(=O)N2CCN(c3ccc(NC(=N)c4cccs4)cc3)CC2)cc(OC(CC)CC)c1O` [Example 17], the melting point is 170 to 171 °C. This compound yielded an IC50 in data set [1] of 470 nM.

In the case of `CCCCCCOc1cc(C=CC(=O)N2CCN(CC(O)c3ccc(F)cc3)CC2)cc(OCCCCCC)c1O` (stereo not shown) [Example 12, 3-(3,5-bis-hexyloxy-4-hydroxyphenyl)-1-{4-[2-(4-fluorophenyl)-2-hydroxyethyl]piperazine-1-yl}propenone], in data set [1], the IC50 is 260 nM and the “antioxidation activity increased” value amounted to 88%.

`CCC(CC)Oc1cc(/C=C/C(=O)NCc2cc(C(C)(C)C)c(O)c(C(C)(C)C)c2)cc(OC(CC)CC)c1O` [Example 4, 3-[3,5-bis-(1-ethylpropoxy)-4-hydroxyphenyl]-N-(3,5-di-t-butyl-4-hydroxybenzyl)acrylamide] had a melting point of 75 to 80 °C.

In the case of `CCCCOc1cc(CCC(=O)N2CCN(CC(O)c3ccc(Cl)cc3)CC2)cc(OCCCC)c1O` (stereo not shown) [Example 15, 1-{4-[2-(4-chlorophenyl)-2-hydroxyethyl]piperazine-1-yl}-3-(3,5-dibutoxy-4-hydroxyphenyl)propane-1-one], in data set [1], half-maximal inhibition (IC50) required 910 nM and the “antioxidation activity increased” value amounted to 56%.
